# Assay results reported in ChEMBL document CHEMBL3507680, “University of Dundee, Gates Library screen for HepG2 cell viability”.
# Experiment: Human HepG2 cell viability assay in 384 well format
# Format: toxicity, cell-based
# Parameters: dose 125 nL, time 70.5 hour; concentration not given beside the values
# Conditions: HepG2 cells, read-out: Inhibition
row,SMILES,cytotoxicity at 70.5 h
1,Cc1ccc(OCc2nc(CNCC3CN(C)CCO3)cs2)cc1 (stereo not drawn),29.7%
2,Cc1nc(CN(C)C2CCN(CCc3cccs3)C2)no1 (stereo not drawn),23.7%
3,Cc1cccc(OCCCN2CCC(N(C)Cc3noc(C)n3)C2)c1 (stereo not drawn),25.5%
4,Cc1nc(CN(C)C2CCN(CCCOc3ccc(F)cc3)C2)no1 (stereo not drawn),22.2%
5,Cc1nc(CN(C)C2CCN(CCCOc3ccccc3C)C2)no1 (stereo not drawn),0.379%
6,CCc1nc(CN(C)C2CCN(CCc3cccs3)C2)no1 (stereo not drawn),-6.05%
7,O=C(NCC(=O)N1CCC2(CC1)OCCO2)c1ccoc1,-7.96%
8,CN1CCC/C1=N\S(=O)(=O)c1ccc(NC(=O)c2ccc(Cl)cc2)cc1,1.42%
9,CN1CCC/C1=N\S(=O)(=O)c1ccc(NC(=O)Cc2cccs2)cc1,-2.68%
10,CC(C)c1cc(NC(=O)CN2CCC(C(N)=O)CC2)on1,-6.12%
11,CC(C1CC1)N(C)C(=O)c1ccc(-n2ncc(C#N)c2N)cc1 (stereo not drawn),-6.01%
12,Cc1cccc(OCC(O)CN2CCC(Cn3cccn3)CC2)c1 (stereo not drawn),22.2%
13,N#Cc1cnn(-c2ccc(C(=O)N(C3CCCCC3)C3CC3)cc2)c1N,-0.0932%
14,COCCN(C)C(C)c1cccc(S(N)(=O)=O)c1 (stereo not drawn),0.815%
15,Cc1ccc(OCCN(C)C(C)c2cccc(S(N)(=O)=O)c2)cc1 (stereo not drawn),1.1%
16,O=C(NCC(=O)N1CCCC(c2ccccc2)CC1)c1ccoc1 (stereo not drawn),1.06%
17,CCN(Cc1cccc2c1OCO2)C(=O)NCc1ccccn1,13.5%
18,COc1ccc(Cl)cc1CC(=O)N1CCN(CC(C)O)CC1 (stereo not drawn),-5.64%
19,CCc1nc(CN(C)C2CCN(CCOc3ccccc3)C2)no1 (stereo not drawn),0.0512%
20,CNC(=O)C1CCN(CC(=O)Nc2cc(C(C)C)no2)CC1,-1.42%
21,COc1c(CNC2CCc3cc(Cl)ccc32)c(C)nn1C (stereo not drawn),-3.82%
22,COc1c(CNC2CCc3cc(C)ccc32)c(C)nn1C (stereo not drawn),-1.11%
23,CC(C)(C)c1cc(NC(=O)CN2CCCC2Cn2cccn2)on1 (stereo not drawn),1.91%
24,O=C(c1ccc2c(c1)COC2)N1CCCN(Cc2cscn2)CC1,1.09%

row,SMILES,cytotoxicity at 70.5 h
1,CN(Cc1noc(C2CC2)n1)C1CCN(CCc2cccs2)C1 (stereo not drawn),-2.4%
2,CCN(Cc1cccc2c1OCO2)C(=O)NCCOC,3.33%
3,Cc1cc(CN2CCCC(Cn3cncn3)C2)on1 (stereo not drawn),-3.16%
4,O=C(c1ccc2cc[nH]c2c1)N1CCCN(Cc2cscn2)CC1,-2.03%
5,CCC(O)CN1CCN(C(=O)c2sccc2C(C)C)CC1 (stereo not drawn),-7.94%
6,O=S(=O)(CCN1CCCCC1Cn1cncn1)c1ccccc1 (stereo not drawn),27.2%
7,COCCc1noc(CN2CC(n3nc(C)cc3C)C2)n1,4.95%
8,CCCc1noc(CN2CCC(N(C)Cc3nnc(C4CC4)o3)C2)n1 (stereo not drawn),4.17%
9,O=S(=O)(CCCNC1CCc2ncnn2C1)c1ccccc1 (stereo not drawn),23.5%
10,CCCc1nc(C)c(C(=O)NCCN2CCCCC2)s1,-1.37%
11,CCN1CCN(CCNC(=O)c2sc(C)nc2C)CC1,-5.81%
12,COCCc1noc(CN2CCOC(Cn3cc(C)cn3)C2)n1 (stereo not drawn),0.177%
13,CCc1nc(C)c(C(=O)NCCN2CCCC2)s1,-5.7%
14,Cc1ccccc1CN(C)C(=O)CN1CCOC(Cn2cccn2)C1 (stereo not drawn),3.04%
15,Cc1cc(C)n(CC2CN(Cc3nc(C)c(C)o3)CCO2)n1 (stereo not drawn),-5.6%
16,Cc1cnn(CC2CCCN2C(=O)c2cccc(F)c2F)c1 (stereo not drawn),-1.26%
17,COCCc1noc(CN2CCCC2Cn2nc(C)cc2C)n1 (stereo not drawn),1.57%
18,COc1cccc(S(=O)(=O)CCNC2CCc3ncnn3C2)c1 (stereo not drawn),-4.52%
19,O=C(COc1ccc(Cl)cc1)N1CCN(c2cnccn2)CC1,-0.713%
20,Cc1noc(C)c1C(=O)NCC(C)N1CCc2ccccc21 (stereo not drawn),9.63%
21,CS(=O)(=O)N1CCC(NC(=O)COc2ccccc2Cl)CC1,-3.89%
22,Cc1ccc(OCC(=O)NC2CCN(S(C)(=O)=O)CC2)cc1,-1.26%
23,COc1ncccc1NC(=O)NC1CCCN(c2ncccn2)C1 (stereo not drawn),1.22%
24,COCCCNC(=O)Nc1ccc(F)c(C(N)=O)c1,0.915%

row,SMILES,cytotoxicity at 70.5 h
1,CCCc1nc(C)c(C(=O)NCCN2CCOCC2)s1,21.3%
2,CC(C)COCC(NC(=O)c1cccnc1)c1ccco1 (stereo not drawn),-9.01%
3,CC(C)COCC(NC(=O)c1cc[nH]n1)c1ccco1 (stereo not drawn),4.11%
4,Cc1ccc(CNC(=O)NCCCn2nc3ccccn3c2=O)s1,30.2%
5,Cc1cc(C)n(CC2CCCN2CC(=O)N(C)Cc2cnn(C)c2)n1 (stereo not drawn),-9.95%
6,Cc1nccn1C1CCCN(C(=O)c2ccc3c(c2)NC(=O)CO3)C1 (stereo not drawn),-5.24%
7,Cc1cc(C(=O)N2CCCC2Cn2nc(C)cc2C)on1 (stereo not drawn),1.85%
8,CC(=O)Nc1ccc(S(=O)(=O)NC(=O)CCC2CCCO2)cc1 (stereo not drawn),26.4%
9,O=C(COc1ccc2c(c1)CCC2)N1CCOCC1c1ncon1 (stereo not drawn),-10.4%
10,CNS(=O)(=O)c1cccc(CNc2ccc(C(F)(F)F)nn2)c1,-3.47%
11,Cc1cccc(NC(=O)NCCCn2nc3ccccn3c2=O)c1C,-8.44%
12,CC(O)CN1CCC(CNCc2cccc(OC(C)C)c2)CC1 (stereo not drawn),47%
13,CC(O)CN1CCC(CNCc2cccc(Br)c2)CC1 (stereo not drawn),24.8%
14,O=C(c1cccc(OC2CCCC2)c1)N1CCCC(n2cncn2)C1 (stereo not drawn),5.3%
15,CCOc1ncccc1C(=O)N1CCCCC1c1nccs1 (stereo not drawn),2.5%
16,CCc1nccn1C1CCCN(C(=O)c2cnn3ccc(C)nc23)C1 (stereo not drawn),-9.27%
17,Cc1cc(C)n(CC2CCCN2Cc2c(C)noc2C)n1 (stereo not drawn),34.3%
18,C1CC(c2noc(C3CC3)n2)CN(Cc2noc(C3CC3)n2)C1 (stereo not drawn),-7.62%
19,CCc1noc(CN2CCCC2c2noc(C3CC3)n2)n1 (stereo not drawn),1.8%
20,CCOCC(O)CN1CCN(C(=O)CC(C)C)CC1 (stereo not drawn),-7.21%
21,CN(C)C(=O)c1ccc(CNC(=O)NCCN(C)C2CCCC2)cc1,-13%
22,CN(CCNC(=O)Nc1ccncc1)C1CCCCC1,30.8%
23,Cc1cc(C)n(CC2CN(Cc3nc(-c4ccoc4)no3)CCO2)n1 (stereo not drawn),-15.7%
24,Cc1nc(C)n(C2CCCN(C(=O)c3csc(C(C)C)n3)C2)n1 (stereo not drawn),23.9%

row,SMILES,cytotoxicity at 70.5 h
1,CCc1cccc(OCC(=O)N2CCCC(n3cncn3)C2)c1 (stereo not drawn),-9.33%
2,CC(Cn1cccn1)NCc1csc(-c2cccs2)n1 (stereo not drawn),-26%
3,Cc1ccc(-c2nc(CN3CCc4nn(C)c(=O)cc4C3)co2)cc1,-17%
4,O=C(NCCNc1ncccn1)N1CCSCC1,-11.7%
5,O=C1CCc2cc(C(=O)NCc3ccc(-n4cncn4)nc3)ccc2N1,-0.0283%
6,O=C(NCCNc1ccccn1)N1CCSCC1,-5.96%
7,COc1cc(C)nc(N2CCN(C(=O)c3ccc[nH]3)CC2)n1,-1.4%
8,COc1cc(C)nc(N2CCN(C(=O)c3ccc(Cl)o3)CC2)n1,-7.01%
9,Cc1nn(C)c(C)c1C1CCCN1CC(=O)Nc1ccncc1 (stereo not drawn),-7.94%
10,CN(CCNC(=O)NCc1ccncc1)C1CCCC1,-18%
11,Cc1ccc(-c2nc(CN3CCc4nn(C)c(=O)cc4C3)no2)cc1,-15.2%
12,Cc1cnn(CCC(=O)N2CCCC(c3cc(C(N)=O)[nH]n3)C2)c1 (stereo not drawn),-10.9%
13,CCCOc1cc(CNC(=O)Nc2cccnc2N2CCCC2)ccn1,-24.2%
14,c1cnnc(N2CCCC(NCc3cn4ccccc4n3)C2)c1 (stereo not drawn),15.8%
15,c1ccc(-c2nc(CN3CCc4c(ncn4C4CC4)C3)cs2)cc1,5.22%
16,CN(Cc1cn2ccccc2n1)C1CCCN(c2cccnn2)C1 (stereo not drawn),12.5%
17,Cc1ccc(-c2nc(CNCC3CN(C)CCO3)cs2)o1 (stereo not drawn),18.6%
18,CS(=O)(=O)NCC1CCCN(C(=O)c2ccc(Cl)o2)C1 (stereo not drawn),-8.13%
19,CS(=O)(=O)NCC1CCCN(C(=O)c2cc3ccccc3o2)C1 (stereo not drawn),-3.7%
20,O=C(NCCOc1ccc2c(c1)OCO2)N1CCC1,-12.5%
21,COCc1nc(C(=O)N2CCCC(n3cccn3)C2)cs1 (stereo not drawn),-13.4%
22,O=C(c1cc2cc(F)ccc2[nH]1)N1CCC(Nc2cccnn2)CC1,24.4%
23,Cc1ccn(-c2cccc(C(=O)N3CCCC(n4ccnc4C)C3)c2)n1 (stereo not drawn),-11.3%
24,CCc1nccn1C1CCCN(C(=O)c2csc(COC)n2)C1 (stereo not drawn),-17.8%

row,SMILES,cytotoxicity at 70.5 h
1,CCC(O)CN1CCN(C(=O)Cc2cc(Cl)ccc2OC)CC1 (stereo not drawn),-8.81%
2,O=C(Cc1n[nH]c2ccccc12)N1CCC(Nc2cccnn2)CC1,-2.23%
3,CC(Cn1cccn1)NC(=O)N1CCN(Cc2cccnc2)CC1 (stereo not drawn),-7.03%
4,COc1ccc(Cl)cc1CC(=O)N1CCN(CCO)CC1,12.5%
5,Cc1nc(C)c(C(=O)OCCNc2ncccc2C#N)s1,-11.1%
6,O=C(N1CCC(Nc2cccnn2)CC1)C1(c2ccc(F)cc2)CC1,-6.39%
7,Cc1nc(C)n(CC2CCCN2Cc2ccn(-c3ccccc3)n2)n1 (stereo not drawn),3.67%
8,CC(=O)N1CCCN(CC(C)(O)c2cccc(C(F)(F)F)c2)CC1 (stereo not drawn),-3.98%
9,c1ccc(-n2ccc(CN3CCCC3Cn3cccn3)n2)cc1 (stereo not drawn),-13.6%
10,Cc1noc(C(C)C)c1C(=O)NCCCOC(C)C,-4.85%
11,CC(c1cccc(S(N)(=O)=O)c1)N(C)CCOc1ccccc1 (stereo not drawn),-16.8%
12,CCc1nc(C2CCCN2C(=O)CCn2cncn2)no1 (stereo not drawn),-21.3%
13,COc1c(C2CCCN2C(=O)c2cncnc2C)c(C)nn1C (stereo not drawn),39.1%
14,O=S(=O)(CCCN1CCCC1Cn1cncn1)c1ccccc1 (stereo not drawn),11.6%
15,CN1CCC/C1=N\S(=O)(=O)c1ccc(NC(=O)c2ccc(F)cc2)cc1,-4.6%
16,CC(C)CCCNC(=O)Nc1ccc(F)c(C(N)=O)c1,2.14%
17,CCn1cc(NC(=O)NCc2ccc3c(c2)OCCO3)cn1,-13%
18,COc1ccc(F)cc1C(C)NC(=O)Cn1ccc(=O)n(C)c1=O (stereo not drawn),-6.42%
19,Cc1nn(C)c(N(C)C)c1CNC1CCc2cc(F)ccc21 (stereo not drawn),-4.67%
20,COc1cc(CNC2CCCc3c2cnn3C)cc(OC)c1 (stereo not drawn),-16.8%
21,c1cnc(N2CCCC(NCc3cccc4c3OCCO4)C2)nc1 (stereo not drawn),3.71%
22,Cc1nn(C)c(N2CCOCC2)c1CNC1CCc2cc(F)ccc21 (stereo not drawn),-19.2%
